15 compounds from PubChem BioAssay (NCI) can be followed below.

Test systems include HOP-92 NSCLC; NCI-H23 lung; OVCAR-5 ovarian; SF-268 CNS; SF-539 CNS; SK-MEL-2 melanoma; TK-10 renal; UACC-257 melanoma; UACC-62 melanoma.
Experiment in all cases: growth of human tumour cells (NCI), 48 h

Structures are written as SMILES.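 Results reflect a 48-hour exposure of cells in 96-well plates to compound at five concentrations. GI50 marks 50% less growth. TGI: total growth inhibition.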 Some results are limits rather than exact numbers.

As to `CC[C@@]1(O)C(=O)OCc2c1cc1n(c2=O)Cc2cc3c([N+](=O)[O-])c(O)ccc3nc2-1`, the GI50 in the assay on HOP-92 NSCLC is 1.26 µM; in the assay with NCI-H23 lung, 0.0821 µM; with OVCAR-5 ovarian, 0.879 µM; with SF-268 CNS, 0.073 µM; in the assay with SF-539 CNS it was 0.0449 µM; with SK-MEL-2 melanoma, 2.27 µM. Besides, the GI50 in the assay with TK-10 renal is 19.5 µM; in the assay with UACC-257 melanoma, 1.19 µM; in the assay with UACC-62 melanoma, 0.0255 µM. Besides, the TGI with HOP-92 NSCLC is 6.56 µM; in the assay with NCI-H23 lung it was 0.636 µM; with OVCAR-5 ovarian, 11.6 µM; in the assay on SF-268 CNS, > 22.3 µM; in the assay on SF-539 CNS, 0.357 µM; in the assay with SK-MEL-2 melanoma it was 6.67 µM. For the same compound, the TGI is > 85.6 µM in the assay with TK-10 renal, 16 µM in the assay on UACC-257 melanoma and 0.265 µM in the assay with UACC-62 melanoma.

As to `Cc1cc(Cl)ccc1NC(=O)C1C(=O)C(=O)N(c2ccc(Cl)cc2C)C1=O` (stereo not given), the TGI with HOP-92 NSCLC is 54.2 µM; with NCI-H23 lung it was > 100 µM; in the assay on OVCAR-5 ovarian it was > 100 µM; in the assay with SF-268 CNS it was > 100 µM; in the assay on SF-539 CNS, > 100 µM; in the assay on SK-MEL-2 melanoma it was > 100 µM. Further, the TGI in the assay with TK-10 renal, with UACC-257 melanoma and with UACC-62 melanoma was > 100 µM in each case.

Consider `[O-]c1ccccc1[C-]=Nc1ccccc1O.[O-]c1ccccc1[C-]=Nc1ccccc1O.[O]=[U]=[O]`, for which the GI50 with HOP-92 NSCLC was 8.4 µM; in the assay on NCI-H23 lung, 11.3 µM; with OVCAR-5 ovarian, 21 µM; in the assay on SF-268 CNS, 11.3 µM; in the assay with SK-MEL-2 melanoma, 13.2 µM; in the assay on TK-10 renal, 28.9 µM. Further, the figures for the GI50 with UACC-257 melanoma and with UACC-62 melanoma were 3.9 µM and 10.4 µM, respectively. The TGI is 35.2 µM in the assay with HOP-92 NSCLC; 76.5 µM in the assay with NCI-H23 lung; > 100 µM with OVCAR-5 ovarian; 58.1 µM in the assay on SF-268 CNS; 37.3 µM in the assay on SK-MEL-2 melanoma; 55.5 µM in the assay with TK-10 renal. The results for the TGI in the assay on UACC-257 melanoma and in the assay with UACC-62 melanoma were 26.3 µM and 31.1 µM, respectively.

For `O=c1/c(=C/c2ccccc2O)sc2nc3ccccc3n12`, the TGI was > 100 µM with HOP-92 NSCLC; > 100 µM with NCI-H23 lung; > 100 µM with OVCAR-5 ovarian; 56.7 µM in the assay with SF-268 CNS; > 100 µM in the assay on SF-539 CNS; > 100 µM in the assay with SK-MEL-2 melanoma. Moreover, the figures for the TGI with TK-10 renal, in the assay on UACC-257 melanoma and with UACC-62 melanoma were > 100 µM, > 100 µM and 80.6 µM, respectively.

Turning to `COC(=O)c1ccc(CS(=O)(=O)c2ccccc2)cc1`, the TGI in the assay on HOP-92 NSCLC, in the assay with NCI-H23 lung, with OVCAR-5 ovarian, in the assay on SF-268 CNS, in the assay on SF-539 CNS and in the assay on SK-MEL-2 melanoma was > 100 µM throughout. The TGI in the assay on TK-10 renal, with UACC-257 melanoma and in the assay on UACC-62 melanoma was > 100 µM throughout.

For the compound `CC1(OCc2ccccc2)C(=O)N2C1N(C(=O)OCc1ccccc1)CC2(C)C` (stereo not given), the TGI with NCI-H23 lung, in the assay with SF-268 CNS, with SF-539 CNS, with SK-MEL-2 melanoma, in the assay on TK-10 renal and in the assay on UACC-257 melanoma was > 100 µM each time. Moreover, the TGI with UACC-62 melanoma is > 100 µM.

Consider `CC(=O)CC(=O)ON(C)C(C)=O`, for which the TGI in the assay on NCI-H23 lung is > 100 µM; in the assay on OVCAR-5 ovarian, > 100 µM; in the assay with SF-268 CNS, > 100 µM; in the assay with SF-539 CNS, > 100 µM; in the assay on TK-10 renal, > 100 µM; in the assay with UACC-257 melanoma, 56.4 µM. Further, the TGI with UACC-62 melanoma was > 100 µM.

Regarding `O=C1C2c3[nH]c4ccccc4c3C3CCC(c4ccccc4)CC3C2C(=O)N1c1ccccc1` (stereo not given), the TGI in the assay with NCI-H23 lung, with OVCAR-5 ovarian, with SF-268 CNS, in the assay on SF-539 CNS, in the assay with TK-10 renal and in the assay with UACC-62 melanoma was > 100 µM throughout.

Take `Clc1cc(Cl)cc(C2SCc3nc4ccccc4n32)c1` (stereo not given): the TGI with HOP-92 NSCLC was 47.2 µM; in the assay with NCI-H23 lung it was 45.4 µM; in the assay with OVCAR-5 ovarian, 71.4 µM; in the assay with SF-268 CNS, 59.3 µM; with SF-539 CNS it was 23.9 µM; in the assay on SK-MEL-2 melanoma, 46.1 µM. Further, the figures for the TGI in the assay with TK-10 renal, in the assay with UACC-257 melanoma and in the assay on UACC-62 melanoma were 70.2 µM, 32.4 µM and > 100 µM, respectively.

Turning to `CCCCN1C(=O)C2c3[nH]c4ccccc4c3C3CCCCC3C2C1=O` (mixture of isomers), the TGI turned out to be 78.1 µM with NCI-H23 lung; 48.4 µM in the assay on SF-268 CNS; 28.6 µM with SF-539 CNS; 33.9 µM in the assay with TK-10 renal; 79.3 µM in the assay on UACC-62 melanoma.

As for `CC12CCC(=O)N1c1cc([N+](=O)[O-])ccc1N2` (stereo not given), the TGI in the assay on NCI-H23 lung, in the assay with SF-268 CNS, in the assay with SF-539 CNS, with SK-MEL-2 melanoma, in the assay on UACC-257 melanoma and in the assay on UACC-62 melanoma was > 100 µM each time.

`CN(C(=N)c1ccccc1)c1ccccc1`: the TGI in the assay with HOP-92 NSCLC, with NCI-H23 lung, in the assay on SF-539 CNS, in the assay on SK-MEL-2 melanoma, with TK-10 renal and in the assay on UACC-62 melanoma was > 100 µM in each case.

With `Cc1ccc2oc(=O)cc(CC(=O)O)c2c1`, the TGI with HOP-92 NSCLC, with NCI-H23 lung, in the assay with OVCAR-5 ovarian, in the assay on SF-268 CNS, with SF-539 CNS and with SK-MEL-2 melanoma was > 100 µM throughout. Also, the TGI in the assay on TK-10 renal and with UACC-62 melanoma was > 100 µM throughout.

For `C[C@]12CC[C@H](OC(=O)Cc3ccc(N(CCCl)CCCl)cc3)CC1CC[C@@H]1C2CC[C@]2(C)NC(=O)CCC12` (stereo not given in full), the TGI with HOP-92 NSCLC amounted to 35.6 µM; in the assay on NCI-H23 lung, 35.4 µM; in the assay on SF-268 CNS, 33 µM; in the assay on SF-539 CNS, 12.5 µM; with SK-MEL-2 melanoma, 48.7 µM; in the assay on TK-10 renal, 44.4 µM. In addition, the TGI with UACC-257 melanoma amounted to 27 µM; in the assay with UACC-62 melanoma, 21.4 µM.

Regarding `CO[C@H](C(=O)O[C@H]1C(=O)N2CCC3CCC1C32C)c1ccccc1` (stereo not given in full), the TGI in the assay on NCI-H23 lung, in the assay with OVCAR-5 ovarian, in the assay with SF-268 CNS, with SF-539 CNS, in the assay with SK-MEL-2 melanoma and in the assay with UACC-257 melanoma was > 100 µM throughout. For the same compound, in the assay with UACC-62 melanoma, the TGI was > 100 µM.
